Results from PMC4736399 (Oxidative Medicine and Cellular Longevity, 2016).
Values joined by “and” are separate entries in the source; they are usually repeats but may differ in a detail not shown here. Identical values can stand only once. Counter-ions that a name gives are not always drawn. Each block holds one molecule with its values, some of them ahead of it.

What was measured:
SSAO = molecular target: T1, SSAO (Homo sapiens, UniProt Q16853); assay: Amplex Red fluorometric detection of benzylamine-induced hydrogen peroxide release in human adipose tissue homogenates; assay type: biochemical; conditions: for effect on benzylamine-induced H2O2 release: tested agent at 1 mM, 1 mM benzylamine, hAT homogenates, Amplex Red
T1 construct: benzylamine oxidation by hAT preparations, naturally rich in SSAO/VAP-1; from tissue; host or cells: human subcutaneous abdominal adipose tissue (hAT), crude homogenate
T1 sequence (Q16853 1-763): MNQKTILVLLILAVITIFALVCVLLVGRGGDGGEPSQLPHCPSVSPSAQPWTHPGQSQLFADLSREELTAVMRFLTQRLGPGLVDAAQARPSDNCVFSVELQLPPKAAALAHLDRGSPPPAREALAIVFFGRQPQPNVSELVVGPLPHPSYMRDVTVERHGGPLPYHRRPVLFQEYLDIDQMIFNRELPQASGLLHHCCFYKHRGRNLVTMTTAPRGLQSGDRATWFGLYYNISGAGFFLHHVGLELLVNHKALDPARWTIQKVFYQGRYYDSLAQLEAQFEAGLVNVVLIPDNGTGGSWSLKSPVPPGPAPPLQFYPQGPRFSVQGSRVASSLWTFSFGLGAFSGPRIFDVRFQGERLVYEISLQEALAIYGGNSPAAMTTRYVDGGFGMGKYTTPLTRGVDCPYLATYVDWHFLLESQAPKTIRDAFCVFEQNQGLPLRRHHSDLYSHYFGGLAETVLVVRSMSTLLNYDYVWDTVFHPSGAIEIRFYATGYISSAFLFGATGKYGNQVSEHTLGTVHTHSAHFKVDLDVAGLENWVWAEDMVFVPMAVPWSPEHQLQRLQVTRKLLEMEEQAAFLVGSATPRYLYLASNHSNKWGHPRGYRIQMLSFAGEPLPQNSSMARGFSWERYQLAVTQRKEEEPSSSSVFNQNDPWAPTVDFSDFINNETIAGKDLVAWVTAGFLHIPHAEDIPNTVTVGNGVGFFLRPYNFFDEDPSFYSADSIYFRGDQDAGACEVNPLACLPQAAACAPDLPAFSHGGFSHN
Protocol: (§1) Oxidase activity was measured using the fluorescent probe Amplex Red (10-acetyl-3,7-dihydrophenoxazine) designed for the detection of hydrogen peroxide in biological milieu. Assays were performed accordingly to our previous descriptions, which corresponded to slight modifications from the adaptation of such fluorometric method for MAO activity determination. Briefly, hydrogen peroxide release was quantified owing to a chromogenic mixture containing 40 μM Amplex Red and 4 U/mL horseradish peroxidase and to the parallel use of hydrogen peroxide standard solutions ranging from 0.05 to 5 μM (final concentrations). Thawed hAT samples were homogenized in 200 mM phosphate buffer (pH 7.4) during 30 sec with a homogenizer Tissue Master-125 (Omni International, Kennesaw, GA, USA) just prior to the determination of their amine oxidase activity, as previously reported, except that no antiprotease cocktail was added. Homogenates were distributed in 96-well dark microplates (at 50 ± 5 μg protein/well) and incubated at 37°C in the dark for at least 30 min in 200 μL final volume after a 30 min preincubation without (control) or with 1 mM pargyline or semicarbazide to inhibit MAO or SSAO activity, respectively, or even with both reference inhibitors to abolish all AO activity. All phenolic compounds tested for their inhibitory properties were also added during this preincubation step. Tyramine or benzylamine was added to the medium in order to obtain 1 mM concentration and to serve as substrates for AO activities, as already stated.
(§2) Spontaneous hydrogen peroxide formation by homogenates of thawed material was also quantified without any addition of exogenous amine or inhibitor and defined as basal release. The influence of chemical compounds or biochemical agents on the fluorescence readouts generated by the hydrogen peroxide standard curve was also performed without any presence of hAT in a set of experiments called “without biological material.” In all cases, fluorescence data (ex/em: 540/590 nm) were collected on a Fluoroskan Ascent plate reader (ThermoLabsystems, Finland).
Fluorescence readouts after 30 min incubation were substracted from corresponding values at t0 and net increase was set at 100% for 1 mM benzylamine alone. (a) Pargyline (MAO, dark squares) or semicarbazide (SSAO inhibitor, open squares) was present at indicated final concentrations, while their combination was tested at 1 mM (P + S, black triangle). Mean ± SEM of at least 6 homogenates. (b) The phenolic compounds were tested in parallel at the indicated final concentrations. Means ± SEM of 8 to 12 homogenates.

[1] = Amplex Red-based fluorescence of 5 μM hydrogen peroxide without biological material; conditions: read-out: EC50 for lowering the fluorescent signal elicited by 5 μM hydrogen peroxide; without any human biological material, Amplex Red chromogenic mixture
Protocol: as §2
Figure 4 Influence of amine oxidase substrates or inhibitors and phenolic compounds on fluorescent-based detection of hydrogen peroxide. The chromogenic mixture used for Amplex Red-based fluorometric detection of hydrogen peroxide was incubated with 5 μM H2O2 alone (control set at 100%) or in the presence of the indicated final concentrations of tested chemicals. […] Means ± SEM of 7 measurements without any human material.

MAO [2] = assay: Radiochemical assay of [14C]-tyramine oxidation by hAT homogenates; assay type: biochemical, human; conditions: 1 mM [14C]-tyramine, 30 min
Protocol: (§3) Samples of adipose tissue were homogenized as described above. 50 μL of crude homogenates were then incubated for 30 min at 37°C in 200 μL of 200 mM phosphate buffer in the presence of radiolabelled amine after 30 min preincubation without or with inhibitor(s). MAO-dependent oxidation was defined as sensitive to inhibition by 1 mM pargyline, whereas SSAO-dependent oxidation was abolished by 1 mM semicarbazide. Assays were started by addition of the labelled substrate and stopped by adding 50 μL of 4 M HCl. Reaction products of amine oxidation were extracted by 1 mL of organic solvent (toluene/ethyl acetate, 1/1 v/v), according to Tipton's method. Then, 0.7 mL aliquots of the organic phase were counted for radioactivity. Maximal velocity and optimal conditions for determination of amine oxidase activities have been already detailed for human adipocytes, cultured preadipose cells, or hAT homogenates. Thus, inhibition studies were performed only under conditions reaching maximal oxidation velocity, that is, corresponding to the use of tyramine or benzylamine isotopic dilutions giving 1 mM final concentration and reaching approximately 640000 dpm/50 μL for [^14C]-tyramine (provided either by PerkinElmer, Evry, France, or by Sigma-Aldrich) or 200000 dpm/50 μL for [^14C]-benzylamine (NEC 835050UC purchased from PerkinElmer). The radioactivity extracted in the organic phase at time 0 (t0) represented less than 0.5% of the total radioactivity/tube of each labelled amine and was subtracted to all counts with tyramine and benzylamine oxidation without inhibitor averaging 14160 ± 5620 dpm (n = 16) and 15800 ± 1770 dpm (n = 12), respectively. These absolute values, which varied substantially from one individual to another, were set as 100% reference in each subject for the calculation of percentages of inhibition.
Figure 5 Influence of phenolic compounds and MAO inhibitors or SSAO inhibitors on tyramine oxidation by hAT. The production of radiolabelled aldehydes resulting from the 30 min incubation of fat tissue homogenates with 1 mM isotopic dilution of [^14C]-tyramine was set at 100% in the absence of added inhibitor, while the background radioactivity detected at t0 was set at 0%. (a) Inhibition by pargyline only of MAO-dependent tyramine oxidation. (b) Influence of phenolic compounds on tyramine oxidation. Each point is the mean ± SEM of 8 (inhibitors) to 12 (phenolic compounds) homogenates.

SSAO/VAP-1 = molecular target: T2, SSAO/VAP-1 (Homo sapiens, UniProt Q16853); assay: Radiochemical assay of [14C]-benzylamine oxidation by hAT homogenates; assay type: biochemical; conditions: 1 mM [14C]-benzylamine, 30 min, up to 1 mM
T2 construct: benzylamine oxidation by hAT preparations, naturally rich in SSAO/VAP-1; from tissue; host or cells: human subcutaneous abdominal adipose tissue (hAT), crude homogenate
T2 sequence (Q16853 1-763): T1 sequence (Q16853 1-763)
Protocol: as §3
Figure 6 Influence of phenolic compounds and MAO inhibitors or SSAO inhibitors on benzylamine oxidation by hAT. (a) Thirty-minute oxidation of 1 mM [^14C]-benzylamine by homogenates generated amounts of radiolabelled benzaldehyde that were separated by extraction as described in Materials and Methods and set at 100% signal (control), while 0% corresponded to the extractible radioactivity at t0. The reference MAO inhibitors (pargyline) or SSAO (semicarbazide) inhibitors were present, separately or in combination at 1 mM, […] before the addition of the radiolabelled substrate. […] Each point is the mean ± SEM of 8 homogenates.

human adipocytes = assay: [3H]-2-deoxy-glucose uptake in freshly isolated adipocytes; assay type: cell-based; conditions: phenolic compound 100 μM (P + S 1 mM each), benzylamine stimulation, 45 min incubation
Protocol: To determine glucose transport activity, hAT was grossly minced and digested at 37°C under shaking in 20 mL of Krebs-Ringer medium containing 0.015 mg/mL liberase (type TM, Roche Diagnostics), 15 mM sodium bicarbonate, 10 mM HEPES, and 3.5% bovine serum albumin. Buoyant adipocytes were separated by filtration through nylon screen and carefully washed in the same medium at pH 7.4 without liberase to obtain adipocyte suspensions as already described. Freshly isolated adipocytes were incubated for 45 min with the tested agents just before [^3H]-2-deoxy-glucose uptake assays (PerkinElmer) performed in 10 min at 37°C in plasticware as already described.
Figure 9 Effects of phenolic compounds, benzylamine, and insulin on glucose transport in human adipocytes. Freshly isolated adipocytes were incubated for 45 min without (basal) or with insulin 100 nM (ins.) or with benzylamine and phenolic compounds at the indicated doses. Then 2-DG uptake assays were performed on 10 min as detailed in Section 2. […] Basal, insulin-stimulated, or benzylamine-stimulated 2-DG uptake was tested without (no addition, open columns) or with pargyline + semicarbazide at 1 mM each (P + S, dark columns). Mean ± SEM of 39 cases. Different from basal alone at ^### P < 0.001. Different from benzylamine alone at ^∗∗∗ P < 0.001. (b) Insulin was used as the agent of reference for maximal transport stimulation, set at 100%. Benzylamine was tested at 1 mM alone (control, open column) or in the presence of 100 μM of the indicated phenolic compounds. Mean ± SEM of 7 observations. Different from benzylamine alone at ^∗ P < 0.05 and ^∗∗ P < 0.01.

MAO [3] = assay: Amplex Red fluorometric detection of tyramine-induced hydrogen peroxide release in human adipose tissue homogenates; assay type: biochemical; conditions: for effect on tyramine-induced H2O2 release: 1 mM tyramine, hAT homogenates, Amplex Red, inhibitors 1 μM to 1 mM
Protocol: as §1, §2

MAO-A = tested on: MAO-A; set-up: method as in PMID 19013512; conditions: at 10-100 μM, peroxidase-based detection of hydrogen peroxide; cited from earlier work

effect on benzylamine-induced H2O2 release (SSAO): abolished benzylamine-induced signal
EC50 [1]: 3.5 µM
SMILES: O=C(O)/C=C/c1ccc(O)c(O)c1 [caffeic acid]
effect on [14C]-tyramine oxidation (MAO [2]): did not abolish enzyme activity
effect on SSAO-mediated [14C]-benzylamine oxidation (SSAO/VAP-1): without preventing benzylamine degradation
effect on benzylamine-stimulated deoxyglucose uptake (human adipocytes): No clear-cut inhibition

EC50 [1]: 5.2 µM
SMILES: COc1cc(/C=C/c2ccc(O)cc2)cc(OC)c1 [pterostilbene]
effect on benzylamine-induced H2O2 release (SSAO): impaired partially the benzylamine-induced signal
effect on [14C]-tyramine oxidation (MAO [2]): did not abolish enzyme activity
effect on SSAO-mediated [14C]-benzylamine oxidation (SSAO/VAP-1): without preventing benzylamine degradation
effect on benzylamine-stimulated deoxyglucose uptake (human adipocytes): counteracted the effect of 1 mM benzylamine

EC50 [1]: 2 µM
SMILES: O=c1c(O)c(-c2ccc(O)c(O)c2)oc2cc(O)cc(O)c12 [quercetin]
effect on benzylamine-induced H2O2 release (SSAO): impaired partially the benzylamine-induced signal
effect on SSAO-mediated [14C]-benzylamine oxidation (SSAO/VAP-1): without preventing benzylamine degradation
effect on benzylamine-stimulated deoxyglucose uptake (human adipocytes): counteracted the effect of 1 mM benzylamine
MAO-A inhibition, in words (MAO-A): inhibit MAO-A in a complete manner

effect on benzylamine-induced H2O2 release (SSAO): abolished benzylamine-induced signal
SMILES: Oc1ccc(/C=C/c2cc(O)cc(O)c2)cc1 [resveratrol, trans-resveratrol]
effect on SSAO-mediated [14C]-benzylamine oxidation (SSAO/VAP-1): without preventing benzylamine degradation
effect on benzylamine-stimulated deoxyglucose uptake (human adipocytes): counteracted the effect of 1 mM benzylamine

Further lines, the molecule ahead of its results:

SMILES: NCc1ccccc1 [benzylamine, benzylamine hydrochloride]
effect on hydrogen peroxide production by hAT preparations (SSAO; 1 mM benzylamine as substrate, 30 min, versus basal): significantly increased the amount of detected hydrogen peroxide

SMILES: C#CCN(C)Cc1ccccc1 [pargyline]
proportion of tyramine-induced H2O2 production left unaltered (MAO [3]; 1 mM pargyline alone or with 1 mM semicarbazide, 1 mM tyramine = 100%): approximately 30%
effect on tyramine-induced H2O2 release (MAO [3]): inhibited dose-dependently
effect on benzylamine-induced H2O2 release (SSAO): resistant
effect on [14C]-tyramine oxidation (MAO [2]): inhibited
effect on SSAO-mediated [14C]-benzylamine oxidation (SSAO/VAP-1): could not prevent this type of amine metabolism

SMILES: NNC(N)=O [semicarbazide]
effect on tyramine-induced H2O2 release (MAO [3]): totally inefficient
proportion of benzylamine-induced H2O2 signal left unaltered (SSAO; 1 mM semicarbazide alone or with 1 mM pargyline, 1 mM benzylamine = 100%): 20% and 15–20%
effect on benzylamine-induced H2O2 release (SSAO): inhibited
effect on [14C]-tyramine oxidation (MAO [2]): virtually unable to abolish this activity
effect on SSAO-mediated [14C]-benzylamine oxidation (SSAO/VAP-1): eradicated the generation of labelled benzaldehyde

SMILES: NCCc1ccc(O)cc1 [tyramine, tyramine hydrochloride]
effect on hydrogen peroxide production by hAT preparations (MAO [3]; 1 mM tyramine as substrate, 30 min, versus basal): to a lesser extent, significantly increased the amount of detected hydrogen peroxide
